Assay results reported in US20110124634A1, “BIOACTIVE COMPOUNDS FOR TREATMENT OF CANCER AND NEURODEGENERATIVE DISEASES” (PONIARD PHARMACEUTICALS, INC., priority 2008, published 2011).
pIC50: −log10 of the molar value. Where two headings read alike, the source gives them in different places.

Assays:
HSP90 = assay: Fluorescence polarization (FP) assay for affinity to HSP90; format: binding; conditions: means of three independent experiments
Procedure: (§1) Most of the compounds synthesized were evaluated for their ability to induce degradation of the HSP90 client protein Her2 in SKBR-3 cells. Selected compounds were evaluated in a fluorescence polarization (FP) assay for their affinity to HSP90.

[1] = system: HSP90 client protein Her2 in SKBR-3 cells; assay: Her-2 degradation assay (Her-2 ELISA) in SKBr-3 cells; format: cell-based; conditions: Homo sapiens
Procedure: as §1
SKBr-3 cells grown in McCoy's 5a Medium supplemented with 10% fetal bovine serum (FBS) were plated into 12-well plates at 50% confluency. Increasing concentrations of inhibitors were added 24 hours later (cells are 65-70% confluent) and incubated overnight for 18 hours. The wells were washed with 2 ml of phosphate buffered saline (PBS), and 50 ul of trypsin was added to each well. After trypsinization was complete, 150 ul of FBS was added to each well. Then 200 ul of cells were transferred to 96-well plates and plates were centrifuged at 1200 rpm for 2 minutes using a tabletop centrifuge. The cells were washed once with 250 ul PBS before being lysed with 100 ul of 50 mM Tris (pH 7.4), 0.1% NP-40 lysis buffer. Protein concentrations of clarified lysates were determined using the BCA Assay (Calbiochem) according to the manufacturer's instructions. 2 ug of each lysate was analyzed in the human sp 185 Her-2 ELISA (Bender Medsystems) according to the manufacturer's instructions. ELISA plates were read at 450 nm using a multiwell plate spectrophotometer. Background was determined by measuring the Abs 450 nm of wells with no lysate added. The background value was subtracted from all values. Absorbance 450 nm values for each inhibitor were plotted against the log 10 inhibitor concentration, and IC50 values were calculated using a nonlinear least-square curve fitting program in Prism 5.

HT29 = assay: MTS assay (cytotoxicity), growth inhibition of HT29; format: cell-based; conditions: Homo sapiens, HT-29, 120 h
Procedure: (§2) Cells were seeded in 96-well plates at 2000 cells/well in a final culture volume of 100 ul for 24 hours before the addition of 25 ul of increasing concentrations of inhibitors that was incubated for 5 days. Viable cell number was determined using the CellTiter 96 AQueous One Solution Cell Proliferation Assay (Promega). Plates were read at 490 nm absorbance 2-4 hours after addition of the MTS reagent using a multiwell plate spectrophotometer. Background was determined by measuring the Abs 490 nm of cell culture medium and MTS in the absence of cells. The background value was subtracted from all values. Absorbance 490 nm values for each inhibitor were plotted against the log 10 inhibitor concentration, and IC50 values were calculated using a nonlinear least-square curve fitting program in Prism 5.

SKBR-3 = assay: MTS assay (cytotoxicity), growth inhibition of SKBR-3; format: cell-based; conditions: Homo sapiens, SK-BR-3, 120 h
Procedure: as §2

BT474 = assay: MTS assay (cytotoxicity), growth inhibition of BT474; format: cell-based; conditions: Homo sapiens, BT-474, 120 h
Procedure: as §2

MCF-7 = assay: MTS assay (cytotoxicity), growth inhibition of MCF-7; format: cell-based; conditions: Homo sapiens, MCF7, 120 h
Procedure: as §2

hMEpiC = assay: MTS assay (cytotoxicity), growth inhibition of human mammary epithelial cell; format: cell-based; conditions: Table 4, means of three independent experiments
Procedure: as §2

[2] = SK-BR-3, Table 2, 18 hours, means of three independent experiments
[3] = Table 4, 5 days, means of three independent experiments, read-out: HT29 IC50 (growth inhibition)
[4] = Table 4, 5 days, means of three independent experiments, read-out: SKBR-3 IC50 (growth inhibition)
[5] = Table 4, 5 days, means of three independent experiments, read-out: BT474 IC50 (growth inhibition)
[6] = Table 4, 5 days, means of three independent experiments, read-out: MCF-7 IC50 (growth inhibition)
[7] = SK-BR-3, Table 1, series I, 18 hours, means of three independent experiments
[8] = Table 5, series III, 5 days, read-out: Growth Inhibition (IC50) HT29
[9] = Table 5, series III, 5 days, read-out: Growth Inhibition (IC50) SKBR-3
[10] = Table 5, series III, 5 days, read-out: Growth Inhibition (IC50) BT474
[11] = Table 5, series III, 5 days, read-out: Growth Inhibition (IC50) MCF-7
[12] = SK-BR-3, Table 5, series III, 18 hours

Row | Structure (SMILES) | pIC50 (HT29; [3]) | pIC50 (SKBR-3; [4]) | pIC50 (BT474; [5]) | pIC50 (MCF-7; [6]) | pIC50 (HT29; [8]) | pIC50 (SKBR-3; [9]) | pIC50 (BT474; [10]) | pIC50 (MCF-7; [11]) | pIC50 [1, 12] | further results
1 | COc1c(C)cnc(CN2c3nc(N)nc(Cl)c3N(C(C)C)C(=O)[C@@H]2C(C)C)c1C [Example I-32] |  |  |  |  |  |  |  |  |  | pIC50 (HSP90; Table 2): 7.10; pIC50 [1, 2]: 7.22
2 | COc1c(C)cnc(CN2c3nc(N)nc(Cl)c3NC(=O)[C@@H]2CCO)c1C [Example I-25] |  |  |  |  |  |  |  |  |  | pIC50 (HSP90; Table 2): 6.19; pIC50 [1, 2]: 6.55
3 | Cc1cnc(CN2CC(=O)N(CC(C)C)c3c(Cl)nc(N)nc32)c(C)c1Br [Example I-34] | 6.85 | 7.22 | 6.89 | 6.55 |  |  |  |  |  | pIC50 (HSP90; Table 3): 7.22; pIC50 ([1]; SK-BR-3, Table 3, 18 hours, means of three independent experiments): 7.00; pIC50 (hMEpiC): 6.74
4 | COc1c(C)cnc(CN2c3nc(N)nc(Cl)c3NC(=O)[C@@H]2C(C)C)c1C [Example I-28] | 5.97 | 6.37 | 6.12 | 5.80 |  |  |  |  |  | pIC50 (HSP90; Table 2): 5.67; pIC50 [1, 2]: 6.19
5 | COc1c(C)cnc(CN2CC(=O)N(C)c3c(Cl)nc(N)nc32)c1C [Example I-5] | 5.83 | 6.34 | 6.02 | 5.66 |  |  |  |  |  | pIC50 (HSP90; Table 1, series I): 6.02; pIC50 [1, 7]: 6.03
6 | COc1c(C)cnc(CN2CC(=O)N(C(C)C)c3c(Cl)nc(N)nc32)c1C [Example I-4] | 7.22 | 7.70 | 7.52 | 7.30 |  |  |  |  |  | pIC50 (HSP90; Table 1, series I): 7.15; pIC50 [1, 7]: 7.30; pIC50 (hMEpiC): 6.49
7 | COc1c(C)cnc(CN2CC(=O)N(CC(C)C)c3c(Cl)nc(N)nc32)c1C [Example I-6] | 7.40 | 8.00 | 7.70 | 7.15 |  |  |  |  |  | pIC50 (HSP90; Table 1, series I): 7.30; pIC50 (HSP90; Table 2): 7.30; pIC50 [1, 7]: 7.40; pIC50 (hMEpiC): 6.89
8 | COC(=O)c1ccc(/C=C2\C(=O)N(Cc3ncc(C)c(OC)c3C)c3nc(N)nc(Cl)c32)[nH]1 [III-5, 5-[2-Amino-4-chloro-7-(4-methoxy-3,5-dimethyl-pyridin-2-ylmethyl)-6-oxo-6,7-dihydro-pyrrolo[2,3-d]pyrimidin-(5Z)-ylidenemethyl]-1H-pyrrole-2-carboxylic acid methyl ester] |  |  |  |  | 6.25 | 6.64 | 6.68 | 6.02 | 6.32 | 
9 | COc1c(C)cnc(CN2C(=O)/C(=C\c3ncc[nH]3)c3c(Cl)nc(N)nc32)c1C [III-3, 2-Amino-4-chloro-5-[1-(1H-imidazol-2-yl)-meth-(Z)-ylidene]-7-(4-methoxy-3,5-dimethyl-pyridin-2-ylmethyl)-5,7-dihydro-pyrrolo[2,3-d]pyrimidin-6-one] |  |  |  |  | 7.15 | 7.40 | 7.22 | 7.00 | 7.05 | 
10 | COc1c(C)cnc(CN2C(=O)/C(=C\c3cc4c([nH]3)CCC=C4Cl)c3c(Cl)nc(N)nc32)c1C [III-7, 2-Amino-4-chloro-5-[1-(4-chloro-6,7-dihydro-1H-indol-2-yl)-meth-(Z)-ylidene]-7-(4-methoxy-3,5-dimethyl-pyridin-2-ylmethyl)-5,7-dihydro-pyrrolo[2,3-d]pyrimidin-6-one] |  |  |  |  | 5.70 | 5.24 | 5.33 | 5.27 | 5.18 | 
11 | COc1c(C)cnc(CN2C(=O)/C(=C\c3cc(C(=O)NCCN4CCOCC4)c[nH]3)c3c(Cl)nc(N)nc32)c1C [III-16, (Z)-5-((2-Amino-4-chloro-7-((4-methoxy-3,5-dimethylpyridin-2-yl)methyl)-6-oxo-6,7-dihydro-5H-pyrrolo[2,3-d]pyrimidin-5-ylidene)methyl)-N-(2-morpholinoethyl)-1H-pyrrole-3-carboxamide] |  |  |  |  | 7.30 | 7.70 | 8.00 | 7.00 | 7.52 | 
12 | COc1c(C)cnc(CN2C(=O)/C(=C\c3cc(C(=O)NCCN4CCCC4)c[nH]3)c3c(Cl)nc(N)nc32)c1C [III-26, (Z)-5-((2-Amino-4-chloro-7-((4-methoxy-3,5-dimethylpyridin-2-yl)methyl)-6-oxo-6,7-dihydro-5H-pyrrolo[2,3-d]pyrimidin-5-ylidene)methyl)-N-(2-(pyrrolidin-1-yl)ethyl)-1H-pyrrole-3-carboxamide] |  |  |  |  | 9.22 | > 9.70 | 9.00 | 7.52 | 8.30 | 
13 | COc1c(C)cnc(CN2CC(=O)N(CCCC(C)C)c3c(Cl)nc(N)nc32)c1C [Example I-3] | 5.65 | 6.01 | 5.78 | 5.51 |  |  |  |  |  | pIC50 (HSP90; Table 1, series I): 6.05; pIC50 [1, 7]: 5.72
14 | COc1c(C)cnc(CN2C(=O)/C(=C\c3cc(C(=O)NCCCN4CCCC4)c[nH]3)c3c(Cl)nc(N)nc32)c1C [III-28, (Z)-5-((2-Amino-4-chloro-7-((4-methoxy-3,5-dimethylpyridin-2-yl)methyl)-6-oxo-6,7-dihydro-5H-pyrrolo[2,3-d]pyrimidin-5-ylidene)methyl)-N-(3-(pyrrolidin-1-yl)propyl)-1H-pyrrole-3-carboxamide] |  |  |  |  | 7.30 | 7.40 | 7.70 | 6.05 | 6.96 | 
15 | COc1c(C)cnc(CN2C(=O)/C(=C\c3cc(Br)c[nH]3)c3c(Cl)nc(N)nc32)c1C [III-11, (Z)-2-Amino-5-((4-bromo-1H-pyrrol-2-yl)methylene)-4-chloro-7-((4-methoxy-3,5-dimethylpyridin-2-yl)methyl)-5H-pyrrolo[2,3-d]pyrimidin-6(7H)-one] |  |  |  |  | 6.42 | 6.85 | 6.37 | 5.86 | 6.72 | 
16 | COc1c(C)cnc(CN2CC(=O)Nc3c(Cl)nc(N)nc32)c1C [Example I-2] | 5.93 | 6.41 | 6.19 | 5.83 |  |  |  |  |  | pIC50 (HSP90; Table 1, series I): 6.06; pIC50 [1, 7]: 6.24
17 | COc1c(C)cnc(CN2C(=O)/C(=C\c3ccc[nH]3)c3c(Cl)nc(N)nc32)c1C [III-1, 2-Amino-4-chloro-7-(4-methoxy-3,5-dimethyl-pyridin-2-ylmethyl)-5-[1-(1H-pyrrol-2-yl)-meth-(Z)-ylidene]-5,7-dihydro-pyrrolo[2,3-d]pyrimidin-6-one] |  |  |  |  | 7.52 | 7.05 | 7.52 | 7.05 | 7.05 | 
18 | COc1c(C)cnc(CN2c3nc(N)nc(Cl)c3NC(=O)[C@H]2C)c1C [Example I-26] | 6.33 | 6.66 | 6.39 | 6.10 |  |  |  |  |  | pIC50 (HSP90; Table 2): 6.40; pIC50 [1, 2]: 6.46
19 | COc1c(C)cnc(CN2C(=O)/C(=C\c3[nH]ncc3Br)c3c(Cl)nc(N)nc32)c1C [III-10, (Z)-2-Amino-5-((4-bromo-1H-pyrazol-5-yl)methylene)-4-chloro-7-((4-methoxy-3,5-dimethylpyridin-2-yl)methyl)-5H-pyrrolo[2,3-d]pyrimidin-6(7H)-one] |  |  |  |  | 6.32 | 6.77 | 6.49 | 5.90 | 6.55 | 
